Data: article PMC5218480 (PLoS ONE, 2017)

System: MV-4-11 cells
Test: Gene expression microarray analysis (Affymetrix PrimeView) and GSEA
Type: cell-based, human
Conditions: ProbeSet 11717523_x_at; LIST B

## Nc1ncn([C@@H]2O[C@H](CO)[C@@H](O)[C@H]2O)c(=O)n1 [azacitidine]
  RFU, TMEM50B: 81.58 RFU
